Experimental data reported in article PMC11123931, “The Synergistic Effect of N2 and N7 Modifications on the Inhibitory Efficacy of mRNA Cap Analogues” (Pharmaceuticals, 2024).
Like-named read-outs stand apart in the source and are kept apart here.

Assays:
[1] = system: cap-dependent translation in rabbit reticulocyte lysate (RRL); details: cited from earlier work; for IC50: RRL, water solutions without DMSO, previously determined, read-out: IC50^WATER ± SE; for times more potent inhibition than the standard dinucleotide m^7GpppG: pure water without DMSO
[2] = target: cap-dependent translation in rabbit reticulocyte lysate (RRL); experiment: Inhibition of cap-dependent translation of ARCA-capped luciferase mRNA in rabbit reticulocyte lysate (RRL); type: biochemical; details: for IC50: ARCA-capped luciferase mRNA, 1% DMSO final concentration, read-out: IC50^DMSO ± SE; for Inhibition Relative to m^7GMP IC50^DMSO (m^7GMP)/ IC50^DMSO (Cap Analogue) / Inhibition Relative to m^7GpppG IC50^DMSO (m^7GpppG)/ IC50^DMSO (Cap Analogue): 1% DMSO
Method: To estimate the ability of the newly synthesized double-modified nucleotides to inhibit cap-dependent translation, the […] translation system from rabbit reticulocytes lysate (RRL) was used according to previously described procedures. This procedure was implemented because it mimics the competition between the cap analogue and the mRNA in the all-natural system. Briefly, experiments were performed in a micrococcal nuclease-treated RRL using an in vitro-transcribed, ARCA-capped, β-globin 5′ UTR containing mRNA encoding firefly luciferase to allow for the determination of protein synthesis by luminometry. […] Initially, the compounds were prepared in an aqueous solution containing 10% DMSO, and inhibition was measured at a final concentration of 1% DMSO. Incubations were conducted at several series of inhibitor concentrations in three independent measurement series (Figure 4).
Stock solutions were subsequently used for serial dilutions (in 10% DMSO). […] Experiments of the inhibition of the cap-dependent translation in rabbit reticulocyte lysate (Flexi RRL System, Promega) were performed as previously described. […] Next, 1.25 μL of the tested compound (as a solution in 10% DMSO) and m2^7,3′OGpppG-capped luciferase mRNA (to a final concentration of 5 ng/μL) was added to the reaction, and the translation mixture (12.5 μL final volume) was incubated for an additional 60 min. As a reference, reactions with DMSO (1.25 μL of 10% solution) were prepared. The reactions were stopped by chilling on ice, and the luciferase activity was determined in a Glomax luminometer (Promega). The IC50 values were obtained by fitting to the experimental data a theoretical curve that describes the extent of inhibition as a function of competitive inhibitor (e.g., cap analogue) concentration.

[3] = system: cap-dependent translation; details: 1% DMSO solution; cited from earlier work
human eIF4E (heIF4E) = target: T1, human eIF4E (heIF4E) (Homo sapiens, UniProt P06730); experiment: Thermal stabilization of heIF4E by differential scanning fluorimetry (DSF); type: binding; details: 1% DMSO; for Relative Change in Affinity to m^7GMP: DSF appK ratio; for Kd: from ΔTm versus ligand concentration, single site ligand binding model, read-out: appK ± SE (apparent affinity to heIF4E)
T1 construct: The thermal stability of human full-length eIF4E (heIF4E) was analyzed; made in house
T1 sequence (P06730 whole entry): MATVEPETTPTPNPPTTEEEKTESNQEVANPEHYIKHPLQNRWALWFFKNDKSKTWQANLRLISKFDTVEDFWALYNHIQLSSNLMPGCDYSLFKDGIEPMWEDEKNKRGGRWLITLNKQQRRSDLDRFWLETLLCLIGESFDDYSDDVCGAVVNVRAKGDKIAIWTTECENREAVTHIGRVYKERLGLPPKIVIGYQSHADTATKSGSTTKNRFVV
Method: The thermal stability of human full-length eIF4E (heIF4E) was analyzed using differential scanning fluorimetry (DSF), similar to that described previously for murine eIF4E [30]. heIF4E was expressed and purified as described earlier. The assay sample (20 μL) contained 5× SYPRO Orange (Sigma Aldrich, St. Louis, MO, USA) and 4 μM of heIF4E (final concentration) in HEPES/KOH with 100 mM KCl, 0.5 mM EDTA, and 1 mM DTT (pH 7.2). The tested compounds, as 10× stocks in 10% DMSO, were added to the final concentration at a range from 1 μM to 200 μM. DMSO at a 1% final concentration was then added to the control reactions without any compounds. […] The melting temperature (Tm) was determined as the minimum of the first negative derivative with the built-in CFX Manager Software (Bio-Rad).

Solubility in water = type: physicochemical
[4] = listed as (4-(diOCH3-bn)-tz-CH2)2bn^7GpppG (4)

In the case of Cn1c[n+]([C@@H]2O[C@H](COP(=O)(O)O)[C@@H](O)[C@H]2O)c2nc(N)[nH]c(=O)c21 [m^7GMP], the IC50 [1] is listed as > 50 µM and the IC50 [2] is listed as 19.2 ± 3.31 µM.
For Nc1nc2c(c(=O)[nH]1)[n+](Cc1ccccc1)cn2[C@@H]1O[C@H](COP(=O)([O-])O)[C@@H](O)[C@H]1O [compound 1, 7-benzylguanosine monophosphate], the “inhibitory properties compared to m^7GMP (times better)” value [3] is given as 1.5.
For Cn1c[n+]([C@@H]2O[C@H](COP(=O)(O)OP(=O)([O-])OP(=O)(O)OC[C@H]3O[C@@H](n4cnc5c(=O)[nH]c(N)nc54)[C@H](O)[C@@H]3O)[C@@H](O)[C@H]2O)c2nc(N)[nH]c(=O)c21 [m^7GpppG], the IC50 [1] is listed as 8.6 ± 0.7 µM and the IC50 [2] is listed as 4.45 ± 0.61 µM.
For COc1cccc(OC)c1OCCCn1cc(CNc2nc3c(c(=O)[nH]2)[n+](C)cn3[C@@H]2O[C@H](COP(=O)([O-])O)[C@@H](O)[C@H]2O)nn1 [compound 2, (4-(diOCH3-bn)-tz-CH2)2m^7GMP], the IC50 [1] is given as 2 ± 0.1 µM, the “Inhibition Relative to m^7GMP IC50^DMSO (m^7GMP)/ IC50^DMSO (Cap Analogue)” value [2] is given as 10.67 and the “Inhibition Relative to m^7GpppG IC50^DMSO (m^7GpppG)/ IC50^DMSO (Cap Analogue)” value [2] is given as 2.47. For the same compound, the IC50 [2] was 1.8 ± 0.21 µM, the “Relative Change in Affinity to m^7GMP” value (human eIF4E (heIF4E)) was 1.8 and the Kd (human eIF4E (heIF4E); DSF) was 13.3 ± 3.45 µM.
In the case of Nc1nc2c(ncn2[C@@H]2O[C@H](COP(=O)(O)OP(=O)(O)OP(=O)(O)OC[C@H]3O[C@@H](n4c[n+](Cc5ccccc5)c5c(=O)[nH]c(N)nc54)[C@H](O)[C@@H]3O)[C@@H](O)[C@H]2O)c(=O)[nH]1 [bn^7GpppG], the “times more potent inhibition than the standard dinucleotide m^7GpppG” value [1] is given as “approximately 1.5”.
In the case of COc1cccc(OC)c1OCCCn1cc(CNc2nc3c(c(=O)[nH]2)[n+](Cc2ccccc2)cn3[C@@H]2O[C@H](COP(=O)(O)OP(=O)([O-])OP(=O)(O)OC[C@H]3O[C@@H](n4cnc5c(=O)[nH]c(N)nc54)[C@H](O)[C@@H]3O)[C@@H](O)[C@H]2O)nn1 [compound 4], the “Inhibition Relative to m^7GMP IC50^DMSO (m^7GMP)/ IC50^DMSO (Cap Analogue)” value [2] is reported as 80.08, the “Inhibition Relative to m^7GpppG IC50^DMSO (m^7GpppG)/ IC50^DMSO (Cap Analogue)” value [2] is reported as ~18 and the “Inhibition Relative to m^7GpppG IC50^DMSO (m^7GpppG)/ IC50^DMSO (Cap Analogue)” value [2, 4] is reported as 18.54. The IC50 [2] was 0.24 ± 0.02 µM, the “Relative Change in Affinity to m^7GMP” value (human eIF4E (heIF4E); [4]) was 6.8 and the “ΔTm of heIF4E” value (human eIF4E (heIF4E); DSF, below a 10 μM final concentration) was ~ 10 °C. The Kd (human eIF4E (heIF4E); DSF) was 3.58 ± 1.09 µM.
In the case of (4-(diOCH3-bn)-tz-CH2)^2m^7GpppG, the “times more potent inhibition than the standard dinucleotide m^7GpppG” value [1] is given as ~6.9.
With COc1cccc(OC)c1OCCCn1cc(CNc2nc3c(c(=O)[nH]2)[n+](Cc2ccccc2)cn3[C@@H]2O[C@H](COP(=O)([O-])O)[C@@H](O)[C@H]2O)nn1 [compound 3] the “Inhibition Relative to m^7GMP IC50^DMSO (m^7GMP)/ IC50^DMSO (Cap Analogue)” value [2] was 7.11, the “Inhibition Relative to m^7GpppG IC50^DMSO (m^7GpppG)/ IC50^DMSO (Cap Analogue)” value [2] was 1.64 and the IC50 [2] was 2.7 ± 0.3 µM. The solubility in water (Solubility in water) was “only partially soluble in water”, the “Relative Change in Affinity to m^7GMP” value (human eIF4E (heIF4E)) was 1.7 and the Kd (human eIF4E (heIF4E); DSF) was 14.7 ± 1.14 µM.
In the case of Cn1c[n+]([C@@H]2O[C@H](COP(=O)([O-])OP(=O)(O)OP(=O)(O)O)[C@@H](O)[C@H]2O)c2nc(N)[nH]c(=O)c21 [m^7GTP], the IC50 [1] is listed as 2.3 ± 0.2 µM and the IC50 [2] is listed as 1.09 ± 0.14 µM.
